Experimental data as given in PMC6686156, “Discovery of Sustainable Drugs for Neglected Tropical Diseases: Cashew Nut Shell Liquid (CNSL)‐Based Hybrids Target Mitochondrial Function and ATP Production in Trypanosoma brucei” (Chemmedchem, 2019).
Where two headings read alike, the source gives them in different places.

How the values were obtained:
[1] = test system: T. b. brucei 427WT bloodstream trypomastigotes; assay: ATP assay on T. b. brucei (luciferin-luciferase); type: cell-based, Trypanosoma brucei brucei; conditions: approximately 0.5×EC50; after 4–6 h
Protocol: ATP assay on T. b. brucei and HFF cells: Changes in cellular ATP levels due to the exposure of trypanosomes to the test compounds (0.5×EC50) were monitored using the Molecular Probes ATP Determination Kit (A22066, Invitrogen Detection Technologies), based on the luciferin–luciferase bioluminescent enzymatic reaction. Bloodstream trypomastigote cultures of T. brucei s427WT were incubated with and without test compound, and, at each predetermined incubation time, 10^7 cells of each sample were transferred into a microfuge tube and centrifuged at 2000×g for 10 min at 4 °C. The pellet was washed twice with 1 mL of 50 mM Tris⋅HCl (pH 7.4) containing 0.1 mM DTT, and then resuspended in 200 μL of the same buffer. The cells were lysed by sonication on ice (twice for 10 s separated by 30 s), using a Soniprep 150 (MSE) at 8 μm amplitude. The samples were centrifuged at 10 000×g for 10 min at 4 °C and the supernatant was collected, instantly frozen in liquid nitrogen, and stored at −80 °C. Oligomycin (2.0 μg mL^−1) was used as positive control. ATP levels were quantified using the contents of the kit following the manufacturer's instructions; 90 μL of standard reaction solution was added to each well of a 96‐well plate and the background luminescence was recorded in a FLUOstar OPTIMA fluorimeter; 10 μL of each sample was then added to each well. The plate was incubated at 28 °C for 15 min and the luminescence was measured, including a standard curve with an ATP concentration ranging from 1 nM to 1 μM to allow the calculation of the ATP concentrations in each sample. The ATP content was measured at 0, 0.5, 1, 2, 4, 8 and 12 h of incubation with test sample.

[2] = test system: T. b. brucei 427WT trypomastigotes; assay: Growth curve / time-to-kill determination; type: cell-based, Trypanosoma brucei brucei; conditions: 1× EC50; over 48 h
Protocol: To determine whether 18–22 inhibited growth or cell division rather than causing cell death of T. b. brucei, cell growth curves were performed by treating 427WT trypomastigotes with concentrations corresponding to 0.5×, 1×, and 2× the EC50 value, using untreated cells as a control. Incubation with test compounds at half the EC50 (Figure 3 A) caused mostly some delayed growth phenotype, with rates increasing after 10 or 20 h. […] At double the concentration (Figure 3 C), all the hybrids cleared the culture between the 4 h and 8 h time points, with the cell populations rapidly declining between 2 and 4 h.
Untreated parasites, used as control, were grown in parallel. The cells were counted by using hemocytometer cell counter (cell count/mL×10^4) at 0, 2, 4, 8, 12, 24, 28, 32, 36, 48 h of incubation. Each experiment was performed as two independent replicates, and each sample was counted at least twice.

T. b. brucei B48 = assay: microbe, parasite or virus in culture; type: cell-based, Trypanosoma brucei brucei; conditions: for RF, resistance factor relative to WT (B48): B48 versus 427WT; for EC50: Trypanosoma brucei, read-out: EC50 T. b. b. B48
Protocol: (§1) Organisms and culture media: Only bloodstream trypomastigotes of T. b. brucei were used throughout this study. […] Parasites were cultured in vented flasks at 37 °C and 5 % CO2 atmosphere and they were passaged every 3 days. Bloodstream forms of T. congolense savannah‐type strain IL3000 were cultured in basal MEM medium, supplemented by 10 % fresh goat serum, 14 μL of β‐mercaptoethanol, 800 μL of 200 mM glutamine solution, and 10 mL of penicillin/streptomycin solution per liter of medium (pH 7.3).48 T. congolense were cultured in six‐well plates at 34 °C and 5 % CO2.
(§2) In brief, the assays were performed in 96‐well plates with 2×10^5 cells per well for T. b. brucei or 5×10^5 cells per well for T. congolense, in their respective culture media. First, 200 μL of test compounds’ solutions (400 μM, in T. brucei or T. congolense medium as appropriate) was added to the first well of each 12‐well row, from which doubling dilutions were conducted over one row per test compound. […] Fluorescence was detected using a FLUOstar Optima (BMG Labtech, Durham, NC, USA) at wavelength of 540 nm (excitation), 590 nm (emission). EC50 values were calculated by nonlinear regression using an equation for a sigmoidal dose–response curve with variable slope using Prism 5.0 (GraphPad Software Inc., San Diego, CA, USA).

[3] = test system: T. b. brucei aqp2/aqp3‐KO; assay: microbe, parasite or virus in culture; type: cell-based, Trypanosoma brucei brucei; conditions: for EC50: Trypanosoma brucei, read-out: EC50 T. b. b. aqp2/aq3‐KO; for RF, resistance factor relative to WT (aqp2/aqp3-KO): aqp2/aqp3-KO versus 427WT
Protocol: as §1, §2

[4] = test system: T. b. brucei 427WT bloodstream trypomastigotes; assay: microbe, parasite or virus in culture; type: cell-based, Trypanosoma brucei brucei; conditions: for SI, selectivity index=EC50(HFF)/EC50(T. b. b. WT): HFF versus T. b. b. 427WT; for RF, resistance factor (+ 5 mM glycerol versus control): Table 2; for EC50: Trypanosoma brucei; for fold more active than compound 4: trypanocidal activity relative to parent compound 4
Protocol: as §1, §2

[5] = Cytotoxicity assay on human foreskin fibroblast (HFF), resazurin; type: cell-based; conditions: human foreskin fibroblast (HFF) cells, tested up to 200 μM, read-out: HFF cytotoxic activity (EC50)
Protocol: Cytotoxicity assay on human foreskin fibroblast (HFF): Toxicity of test compounds to mammalian cells was carried out using the resazurin assay previously described31 with slight modifications as follows. HFF cells were grown in a culture medium containing 500 mL of Dulbecco's modified Eagle's medium (DMEM; Sigma), 50 mL newborn calf serum (NBCS; Gibco), 5 mL penicillin/streptomycin (Gibco), and 5 mL of L‐Glutamax ([…], Gibco), at 37 °C and 5 % CO2 in vented flasks and passaged at 80–85 % of confluence. For the cytotoxicity assay, cells were suspended at 3×10^5 cells mL^−1 and 100 μL aliquots were added to each well of a 96‐well plate. The plate was incubated at 37 °C and 5 % CO2 for 24 h to allow cell adhesion. Serial test compounds dilution was performed in a different 96‐well plate and 100 μL of each dilution was transferred to each well containing cells, resulting in exposure of cells to 200–0.2 μM of test compound. Phenylarsine oxide (Sigma–Aldrich) was used as positive control and drug‐free incubation as negative control. The plates were incubated at 37 °C and 5 % CO2 for an additional 30 h, at which point 10 μL of resazurin solution ([…] in PBS) was added, followed by a final incubation for 24 h. The plates were read and the data analyzed as described above for the trypanosome assay.

[6] = 72 h, bloodstream trypomastigotes, resazurin, 48 h + 24 h, n=4, read-out: EC50 T. b. b. 427WT
[7] = Table 2, 5 mM glycerol in medium, average±SEM of three, read-out: EC50 s427WT + 5 mM glycerol
[8] = Table 2, no glycerol, average±SEM of three, read-out: EC50 Control s427WT

SMILES | ATP content, % of untreated [ATP] [1] | effect on cell growth [2] | RF, resistance factor relative to WT (B48) (T. b. brucei B48) | EC50 (T. b. brucei B48) | EC50 [3] | RF, resistance factor relative to WT (aqp2/aqp3-KO) [3] | SI, selectivity index=EC50(HFF)/EC50(T. b. b. WT) [4] | RF, resistance factor (+ 5 mM glycerol versus control) [4] | EC50 [4, 6] | EC50 [4, 7] | EC50 [4, 8] | fold more active than compound 4 [4] | EC50 at 54 h [5]
COc1cccc2c1C(=O)C=C(Oc1cccc(CCCCCCCCO)c1)C2=O [Compound 20, 2‐(3‐(8‐Hydroxyoctyl)phenoxy)‐5‐methoxynaphthalene‐1,4‐dione] | approximately 50% | decreased the growth rate substantially, with a nearly trypanostatic effect over the first 12 h | 1.1 | 5.3 ± 0.8 µM | 6.2 ± 0.58 µM | 1.2 | >40 | 1.74 | 5 ± 0.3 µM | 16 ± 0.2 µM | 9.2 ± 0.04 µM | up to 10 fold | > 200 µM
O=C1C(Oc2cccc(CCCCCCCCO)c2)=CC(=O)c2c(O)cccc21 [Compound 22, 5‐Hydroxy‐2‐(3‐(8‐hydroxyoctyl)phenoxy)naphthalene‐1,4‐dione] | approximately 50% | killed only a proportion of the cell population before stabilizing | 0.91 | 6.8 ± 0.1 µM | 7.3 ± 0.5 µM | 0.96 | >26.3 | 1.11 | 7.6 ± 0.7 µM | 28.2 ± 0.2 µM | 25.4 ± 1 µM | up to 10 fold | > 200 µM
